Starred links: 1 amine or outer side, 2 acyl side, 3 side chain; linkers in the order of their positions; H or OH if unused. Non-standard residues stand in square brackets, D forms with d. Residues, ends and D or L forms follow the SMILES beside them. ξ: configuration not given here. ξBip(2'-Et-4'-OMe) = CCc1cc(OC)ccc1-c1ccc(CC(N)C(=O)O)cc1; X1 = O=C(C(CCCc1ccc(C(F)(F)F)cc1F)N[*:1])[*:2]; ξNva(5-(3-Cl-Ph)) = NC(CCCc1cccc(Cl)c1)C(=O)O; Ac5c = NC1(C(=O)O)CCCC1
What was measured:
[1] = system: RIN5F (Rat Insulinoma) cells; test: In vitro glucose-dependent insulin secretion (RIN5F cell assay screening protocol); assay type: cell-based; conditions: 16.7 mM glucose load
[2] = Stability in human plasma; assay type: in vitro ADME; conditions: 2 μM peptidomimetic, pooled human plasma, 37° C.; for half-life at 2 μM: pH 7.8, read-out: half-life (t1/2) when incubated with human plasma
Description: (§1) Reactions were terminated by the addition of TFA/H2O (15 mL, 10% (v/v)). […] The column was equilibrated with TFA/H20, at a flow rate of 1 mL/min.

[3] = Stability in simulated intestinal fluid; assay type: in vitro ADME; conditions: 2 μM peptidomimetic, simulated intestinal fluid pH 7.5, 37° C.; for half-life at 2 μM: read-out: half-life (t1/2) when incubated with simulated intestinal fluid
Description: as §1

human glucagon receptor = molecular target: T1, human glucagon receptor (Homo sapiens, UniProt P47871); test: In vitro human glucagon antagonist activity (inhibition of cAMP production) in CHO/human glucagon R cells; assay type: cell-based; conditions: with saturated concentration of glucagon peptide
T1 construct: The full-length cDNA was cloned in pcDNA3.1 (Invitrogen); expressed in transfected cells

DPP IV = DPP IV (Homo sapiens, UniProt P27487); test: Stability against DPP IV enzyme; assay type: in vitro ADME; conditions: 37° C.; for % degradation of peptidomimetics in 24 h when incubated with DPP-IV enzyme: 2 μM peptidomimetic; for half-life at 2 μM: DPP IV enzyme, pH 7.8, 2 μM peptidomimetic, read-out: half-life (t1/2) when incubated with DPP-IV enzyme
Description: as §1

[4] = Stability in liver microsomes; assay type: in vitro ADME; conditions: 2 μM peptidomimetic, human liver microsomes, 37° C.; for half-life at 2 μM: pH 7.8, read-out: half-life (t1/2) when incubated with liver microsomes
Description: as §1

[5] = Stability in simulated gastric fluid; assay type: in vitro ADME; conditions: 2 μM peptidomimetic, simulated gastric fluid pH 1.5, 37° C.; for half-life at 2 μM: read-out: half-life (t1/2) when incubated with simulated gastric fluid
Description: as §1

Human GLP-1 receptor = molecular target: T2, Human GLP-1 receptor (Homo sapiens, UniProt P43220); test: In vitro Human GLP-1 R agonist activity (cyclic AMP determination) in CHO/human GLP1R cells; assay type: cell-based
T2 construct: The full-length cDNA was cloned in pcDNA3.1(+); expressed in transfected cells
T2 sequence (P43220 24-463): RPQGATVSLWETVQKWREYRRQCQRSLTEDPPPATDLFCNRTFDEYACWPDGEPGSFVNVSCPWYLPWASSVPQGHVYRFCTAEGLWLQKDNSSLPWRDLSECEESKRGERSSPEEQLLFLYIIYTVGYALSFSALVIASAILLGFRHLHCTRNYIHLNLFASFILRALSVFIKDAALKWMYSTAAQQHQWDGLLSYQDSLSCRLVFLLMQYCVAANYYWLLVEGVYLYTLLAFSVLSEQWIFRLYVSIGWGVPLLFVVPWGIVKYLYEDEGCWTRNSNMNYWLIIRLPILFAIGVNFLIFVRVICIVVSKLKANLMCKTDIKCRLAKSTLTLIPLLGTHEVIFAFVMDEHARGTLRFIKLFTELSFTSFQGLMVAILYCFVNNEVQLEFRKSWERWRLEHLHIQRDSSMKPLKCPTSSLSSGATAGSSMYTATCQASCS

Chain of DPP IV (P27487 whole entry, species assumed): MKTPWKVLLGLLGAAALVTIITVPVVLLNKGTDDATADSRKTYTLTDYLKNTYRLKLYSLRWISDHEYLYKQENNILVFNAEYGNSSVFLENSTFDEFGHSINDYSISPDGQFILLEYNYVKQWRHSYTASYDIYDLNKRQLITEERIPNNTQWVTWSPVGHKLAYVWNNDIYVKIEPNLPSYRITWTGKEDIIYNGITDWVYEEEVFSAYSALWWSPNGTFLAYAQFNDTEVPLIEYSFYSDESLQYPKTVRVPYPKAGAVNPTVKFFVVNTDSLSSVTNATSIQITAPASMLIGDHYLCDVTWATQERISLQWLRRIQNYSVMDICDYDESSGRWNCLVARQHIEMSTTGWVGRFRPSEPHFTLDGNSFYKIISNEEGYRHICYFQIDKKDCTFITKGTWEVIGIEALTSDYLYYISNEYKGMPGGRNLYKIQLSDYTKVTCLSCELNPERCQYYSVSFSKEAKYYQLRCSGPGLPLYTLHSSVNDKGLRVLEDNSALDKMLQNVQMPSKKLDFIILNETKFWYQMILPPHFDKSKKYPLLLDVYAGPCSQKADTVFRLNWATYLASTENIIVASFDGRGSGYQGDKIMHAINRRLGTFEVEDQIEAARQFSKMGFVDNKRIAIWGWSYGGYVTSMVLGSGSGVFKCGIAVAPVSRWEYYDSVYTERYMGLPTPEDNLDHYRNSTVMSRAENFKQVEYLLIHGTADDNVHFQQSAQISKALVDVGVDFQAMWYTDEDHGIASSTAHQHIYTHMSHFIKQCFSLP
T1 sequence (P47871 26-477): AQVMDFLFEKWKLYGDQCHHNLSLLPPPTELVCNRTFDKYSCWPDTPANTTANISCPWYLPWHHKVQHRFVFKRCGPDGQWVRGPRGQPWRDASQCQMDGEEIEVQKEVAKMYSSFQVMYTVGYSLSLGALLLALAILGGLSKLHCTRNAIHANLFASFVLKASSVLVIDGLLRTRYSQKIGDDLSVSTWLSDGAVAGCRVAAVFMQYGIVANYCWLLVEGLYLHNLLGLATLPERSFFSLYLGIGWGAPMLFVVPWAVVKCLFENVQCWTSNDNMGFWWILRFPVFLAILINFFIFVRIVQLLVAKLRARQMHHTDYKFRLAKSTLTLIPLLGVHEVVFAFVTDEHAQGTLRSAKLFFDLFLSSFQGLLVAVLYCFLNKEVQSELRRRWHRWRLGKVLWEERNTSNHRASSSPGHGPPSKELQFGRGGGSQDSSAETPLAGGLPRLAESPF

| SMILES | Insulin secretion ([1]; 0.1 nM test compd.) | Insulin secretion ([1]; 1 nM test compd.) | Insulin secretion ([1]; 10 nM test compd.) | % degradation of peptidomimetics in 24 h when incubated with human plasma [2] | half-life at 2 μM [2] | half-life (t1/2) when incubated with simulated intestinal fluid [3] | % degradation of peptidomimetics in 24 h when incubated with simulated intestinal fluid [3] | Human Glucagon receptor antagonistic activity shown as inhibition of cAMP production of Glucagon peptide (human glucagon receptor; 1 nM test compound) | Human Glucagon receptor antagonistic activity shown as inhibition of cAMP production of Glucagon peptide (human glucagon receptor; 10 nM test compound) | Human Glucagon receptor antagonistic activity shown as inhibition of cAMP production of Glucagon peptide (human glucagon receptor; 100 nM test compound) | Human Glucagon receptor antagonistic activity shown as inhibition of cAMP production of Glucagon peptide (human glucagon receptor; 1 μM test compound) | Human Glucagon receptor antagonistic activity shown as inhibition of cAMP production of Glucagon peptide (human glucagon receptor; 10 μM test compound) | % degradation of peptidomimetics in 24 h when incubated with DPP-IV enzyme (DPP IV) | half-life at 2 μM (DPP IV) | % degradation of peptidomimetics in 24 h when incubated with liver microsomes [4] | half-life at 2 μM [4] | % degradation of peptidomimetics in 24 h when incubated with simulated gastric fluid [5] | half-life at 2 μM [3] | half-life (t1/2) when incubated with liver microsomes [4] | half-life at 2 μM [5] | further results |
| --- | --- | --- | --- | --- | --- | --- | --- | --- | --- | --- | --- | --- | --- | --- | --- | --- | --- | --- | --- | --- | --- |
| CCc1cc(OC)ccc1-c1ccc(CC(NC(=O)[C@H](CC(=O)O)NC(=O)[C@H](CO)NC(=O)[C@@H](NC(=O)[C@H](Cc2ccccc2)NC(=O)[C@@H](NC(=O)CNC(=O)[C@H](CCC(N)=O)NC(=O)[C@H](CO)NC(=O)[C@@H](N)Cc2c[nH]cn2)[C@@H](C)O)[C@@H](C)O)C(=O)NC(CCCc2ccc(C(F)(F)F)cc2F)C(N)=O)cc1 (some centres unmarked) [compound 49] (H-HSQGTFTSD[ξBip(2'-Et-4'-OMe)][X1]-NH2) | 16.1 ± 0.22 pg/µg/h | 22.1 ± 0.26 pg/µg/h | 36.0 ± 0.36 pg/µg/h | 77% | 8 h | (6) h | 45% | 10 ± 0.03 pmol/ml/μg prt | 8 ± 0.03 pmol/ml/μg prt | 6 ± 0.22 pmol/ml/μg prt | 2 ± 0.13 pmol/ml/μg prt | 0 pmol/ml/μg prt | 75% | 9 h | 81% | 1 h | 14% | – | – | – | half-life (t1/2) when incubated with simulated gastric fluid [5]: (8) h |
| CCc1cc(OC)ccc1-c1ccc(CC(NC(=O)[C@H](CC(=O)O)NC(=O)[C@H](CO)NC(=O)[C@@H](NC(=O)C(C)(Cc2ccccc2F)NC(=O)[C@@H](NC(=O)CNC(=O)C(CCC#N)NC(=O)C(C)(C)NC(=O)[C@@H](N)Cc2c[nH]cn2)[C@H](C)O)[C@H](C)O)C(=O)N(C)C(CCCc2ccccc2F)C(N)=O)cc1 (single isomer, unassigned) [compound 132] | 13.1 ± 0.11 pg/µg/h | 14.9 ± 0.17 pg/µg/h | 28.8 ± 0.44 pg/µg/h | 77% | 8 h | (6) h | 45% | 15 ± 0.11 pmol/ml/μg prt | 12 ± 0.13 pmol/ml/μg prt | 8 ± 0.09 pmol/ml/μg prt | 4 ± 0.01 pmol/ml/μg prt | 2 ± 0.08 pmol/ml/μg prt | 75% | 9 h | 81% | 1 h | 14% | – | – | – | half-life (t1/2) when incubated with simulated gastric fluid [5]: (8) h |
| CCc1cc(OC)ccc1-c1ccc(CC(NC(=O)[C@H](CC(=O)O)NC(=O)[C@H](CO)NC(=O)[C@@H](NC(=O)[C@H](Cc2ccccc2)NC(=O)[C@@H](NC(=O)CNC(=O)[C@H](CCC(N)=O)NC(=O)C2(NC(=O)[C@@H](N)Cc3c[nH]cn3)CCCC2)[C@@H](C)O)[C@@H](C)O)C(=O)NC(CCCc2cccc(Cl)c2)C(N)=O)cc1 (some centres unmarked) [compound 27] (H-H[Ac5c]QGTFTSD[ξBip(2'-Et-4'-OMe)][ξNva(5-(3-Cl-Ph))]-NH2) | 16.4 ± 0.12 pg/µg/h | 22.7 ± 0.17 pg/µg/h | 36.6 ± 0.05 pg/µg/h | 00% | > 24 h | – | 00% | – | – | – | – | – | 00% | > 24 h | 31% | – | 00% | > 24 h | (5) h | > 24 h | – |
| CCc1cc(OC)ccc1-c1ccc(CC(CNC(CCCc2ccccc2F)C(N)=O)NC[C@H](CC(=O)O)NC(=O)[C@H](CO)NC(=O)[C@@H](NC(=O)C(C)(Cc2ccccc2F)NC(=O)[C@@H](NC(=O)CNC(=O)C(CCC#N)NC(=O)C(C)(C)NC(=O)[C@@H](N)Cc2c[nH]cn2)[C@H](C)O)[C@H](C)O)cc1 (single isomer, unassigned) [compound 204] | – | – | – | 00% | > 24 h | – | 00% | 6 ± 0.05 pmol/ml/μg prt | 5 ± 0.04 pmol/ml/μg prt | 2 ± 0.16 pmol/ml/μg prt | 0 pmol/ml/μg prt | 0 pmol/ml/μg prt | 00% | > 24 h | 32% | – | 00% | > 24 h | (5) h | > 24 h | Human GLP-1 R activity (cAMP release), % activity with respect to control (Human GLP-1 receptor; 1 nM test compound): 96 ± 0.02%; Human GLP-1 R activity (cAMP release), % activity with respect to control (Human GLP-1 receptor; 10 nM test compound): 99 ± 0.46%; Human GLP-1 R activity (cAMP release), % activity with respect to control (Human GLP-1 receptor; 100 nM test compound): 99 ± 0.41%; Human GLP-1 R activity (cAMP release), % activity with respect to control (Human GLP-1 receptor; 1 μM test compound): 99 ± 0.66%; Human GLP-1 R activity (cAMP release), % activity with respect to control (Human GLP-1 receptor; 10 μM test compound): 99 ± 0.03% |
| CCc1cc(OC)ccc1-c1ccc(CC(NC(=O)[C@H](CC(=O)O)NC(=O)[C@H](CO)NC(=O)[C@@H](NC(=O)C(C)(Cc2ccccc2F)NC(=O)[C@@H](NC(=O)CNC(=O)C(CCC#N)NC(=O)C(C)(C)NC(=O)[C@H](Cc2c[nH]cn2)NC(C)=O)[C@@H](C)O)[C@@H](C)O)C(=O)NC(CCCc2ccccc2)C(N)=O)cc1 (single isomer, unassigned) [compound 205] | – | – | – | 00% | > 24 h | – | 00% | 4 ± 0.16 pmol/ml/μg prt | 2 ± 0.11 pmol/ml/μg prt | 0 pmol/ml/μg prt | 0 pmol/ml/μg prt | 0 pmol/ml/μg prt | 00% | > 24 h | 33% | – | 00% | > 24 h | (5) h | > 24 h | Human GLP-1 R activity (cAMP release), % activity with respect to control (Human GLP-1 receptor; 1 nM test compound): 96 ± 0.09%; Human GLP-1 R activity (cAMP release), % activity with respect to control (Human GLP-1 receptor; 10 nM test compound): 99 ± 0.07%; Human GLP-1 R activity (cAMP release), % activity with respect to control (Human GLP-1 receptor; 100 nM test compound): 99 ± 0.04%; Human GLP-1 R activity (cAMP release), % activity with respect to control (Human GLP-1 receptor; 1 μM test compound): 99 ± 0.01%; Human GLP-1 R activity (cAMP release), % activity with respect to control (Human GLP-1 receptor; 10 μM test compound): 99 ± 0.08% |
